Source: patent US9227971B2, “Pyrazolo[1,5-a]pyrimidine compounds as mTOR inhibitors” (Merck Sharp & Dohme Corp., priority 2010, dated 2016)

What was measured:
[1] = tested on: phosphorylated AKT Ser473 (pAKT S473), mTORC2 activity, PC3 cells; experiment: mTOR target engagement assay, immunofluorescent cell-based, pAKT S473 readout (mTORC2 activity); settings: Homo sapiens, PC-3, Table 3-1; PC3 cells
Outline: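 After blocking, cells were stained overnight at 4 °C with anti-pAKT S473 antibody, then a fluorescent secondary; inhibition was read as reduced fluorescence intensity.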

[2] = tested on: phosphorylated 4E-BP1 Thr37/46 (p4E-BP1 Thr37/46), mTORC1 activity, PC3 cells; experiment: mTOR target engagement assay, immunofluorescent cell-based, p4E-BP1 Thr37/46 readout (mTORC1 activity); settings: Homo sapiens, PC-3, Table 3-1; PC3 cells; read-out: p4E-BP1 Thr37/46 IC50
Outline: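 Cell-based immunofluorescence in PC3 cells: serially diluted compounds (0.25% DMSO, 5% FBS) applied for ninety minutes at 37° C before fixation and overnight 4° C staining of p4E-BP1 Thr37/46. Untreated DMSO wells set maximal phosphorylation; IC50 obtained by logistic fitting.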

## Cc1cnc(-c2ccc(-c3cnn4c(N)c(S(C)(=O)=O)c([C@@H]5C[C@H]6CC[C@@H](C5)N6C(=O)CO)nc34)cn2)s1 [Compound 3.185, 1-((1R,3a,5S)-3-(7-amino-6-(methylsulfonyl)-3-(6-(5-methylthiazol-2-yl)pyridin-3-yl)pyrazolo[1,5-a]pyrimidin-5-yl)-8-azabicyclo[3.2.1]octan-8-yl)-2-hydroxyethanone]
[1]
  IC50: 100 to 1000 nM
[2]
  IC50: 100 to 1000 nM

## Cc1cnc(-c2ccc(-c3cnn4c(N)c(S(C)(=O)=O)c([C@@H]5C[C@H]6CC[C@@H](C5)N6C(=O)C5(O)CC5)nc34)cn2)s1 [Compound 3.186, ((1R,3s,5S)-3-(7-amino-6-(methylsulfonyl)-3-(6-(5-methylthiazol-2-yl)pyridin-3-yl)pyrazolo[1,5-a]pyrimidin5-yl)-8-azabicyclo[3.2.1]octan-8-yl)(1-hydroxycyclopropyl)methanone]
[1]
  IC50: 1000 to 10000 nM
[2]
  IC50: 1000 to 10000 nM

## Cc1cnc(-c2ccc(-c3cnn4c(N)c(S(C)(=O)=O)c([C@@H]5C[C@H]6CC[C@@H](C5)N6C(=O)C(O)C(F)(F)F)nc34)cn2)s1 (stereo partly drawn) [Compound 3.187, 1-((1R,3s,5S)-3-(7-amino-6-(methylsulfonyl)-3-(6-(5-methylthiazol-2-yl)pyridin-3-yl)pyrazolo[1,5-a]pyrimidin-5-yl)-8-azabicyclo[3.2.1]octan-8-yl)-3,3,3-trifluoro-2-hydroxypropan-1-one]
[1]
  IC50: 1000 to 10000 nM
[2]
  IC50: 1000 to 10000 nM

## Cc1cnc(-c2ccc(-c3cnn4c(N)c(S(C)(=O)=O)c([C@@H]5C[C@H]6CC[C@@H](C5)N6C(=O)C(N)C(F)(F)F)nc34)cn2)s1 (stereo partly drawn) [Compound 3.188, 2-amino-1-((1R,3s,5S)-3-(7-amino-6-(methylsulfonyl)-3-(6-(5-methylthiazol-2-yl)pyridin-3-yl)pyrazolo[1,5-a]pyrimidin-5-yl)-8-azabicyclo[3.2.1]octan-8-yl)-3,3,3-trifluoropropan-1-one]
[1]
  IC50: 1000 to 10000 nM
[2]
  IC50: 1000 to 10000 nM

## Cc1csc(-c2ccc(-c3cnn4c(N)c(S(C)(=O)=O)c([C@@H]5C[C@H]6CC[C@@H](C5)N6C(=O)c5cn[nH]n5)nc34)cn2)n1 [Compound 3.189, ((1R,3s,5S)-3-(7-amino-6-(methylsulfonyl)-3-(6-(4-methylthiazol-2-yl)pyridin-3-yl)pyrazolo[1,5-a]pyrimidin-5-yl)-8-azabicyclo[3.2.1]octan-8-yl)(2H-1,2,3-triazol-4-yl)methanone]
[1]
  IC50: 1000 to 10000 nM
[2]
  IC50: 1000 to 10000 nM

## CC(=O)N1[C@@H]2CC[C@H]1C[C@H](c1nc3c(-c4ccc(-c5nc(C)cs5)nc4)cnn3c(N)c1S(C)(=O)=O)C2 [Compound 3.190, 1-((1R,3a,5S)-3-(7-amino-6-(methylsulfonyl)-3-(6-(4-methylthiazol-2-yl)pyridin-3-yl)pyrazolo[1,5-a]pyrimidin-5-yl)-8-azabicyclo[3.2.1]octan-8-yl)ethanone]
[1]
  IC50: 1000 to 10000 nM
[2]
  IC50: 1000 to 10000 nM

## Cc1csc(-c2ccc(-c3cnn4c(N)c(S(C)(=O)=O)c([C@@H]5C[C@H]6CC[C@@H](C5)N6C(=O)c5nnc(C)[nH]5)nc34)cn2)n1 [Compound 3.191, ((1R,3s,5S)-3-(7-amino-6-(methylsulfonyl)-3-(6-(4-methylthiazol-2-yl)pyridin-3-yl)pyrazolo[1,5-a]pyrimidin-5-yl)-8-azabicyclo[3.2.1]octan-8-yl)(5-methyl-4H-1,2,4-triazol-3-yl)methanone]
[1]
  IC50: 100 to 1000 nM
[2]
  IC50: 100 to 1000 nM

## Cc1csc(-c2ccc(-c3cnn4c(N)c(S(C)(=O)=O)c([C@@H]5C[C@H]6CC[C@@H](C5)N6C(=O)c5nnc[nH]5)nc34)cn2)n1 [Compound 3.192, ((1R,3s,5S)-3-(7-amino-6-(methylsulfonyl)-3-(6-(4-methylthiazol-2-yl)pyridin-3-yl)pyrazolo[1,5-a]pyrimidin-5-yl)-8-azabicyclo[3.2.1]octan-8-yl)(4H-1,2,4-triazol-3-yl)methanone]
[1]
  IC50: 100 to 1000 nM
[2]
  IC50: 100 to 1000 nM

## CS(=O)(=O)c1c([C@@H]2C[C@H]3CC[C@@H](C2)N3C(=O)c2nnc[nH]2)nc2c(-c3ccc(-c4nc5c(s4)CCC5)nc3)cnn2c1N [Compound 3.193, ((1R,3s,5)S-3-(7-amino-3-(6-(5,6-dihydro-4H-cyclopenta[d]thiazol-2-yl)pyridin-3-yl)-6-(methylsulfonyl)pyrazolo[1,5-a]pyrimidin-5-yl)-8-azabicyclo[3.2.1]octan-8-yl)(4H-1,2,4-triazol-3-yl)methanone]
[1]
  IC50: 100 to 1000 nM
[2]
  IC50: 100 to 1000 nM

## Cc1nnc(C(=O)N2[C@@H]3CC[C@H]2C[C@H](c2nc4c(-c5ccc(-c6nc7c(s6)CCC7)nc5)cnn4c(N)c2S(C)(=O)=O)C3)[nH]1 [Compound 3.195, ((1R,3s,5S)-3-(7-amino-3-(6-(5,6-dihydro-4H-cyclopenta[d]thiazol-2-yl)pyridin-3-yl)-6-(methylsulfonyl)pyrazolo[1,5-a]pyrimidin-5-yl)-8-azabicyclo[3.2.1]octan-8-yl)(5-methyl-4H-1,2,4-triazol-3-yl)methanone]
[1]
  IC50: 1000 to 10000 nM
[2]
  IC50: 1000 to 10000 nM

## Cc1nc(-c2ccc(-c3cnn4c(N)c(S(C)(=O)=O)c([C@@H]5C[C@H]6CC[C@@H](C5)N6C(=O)c5nnc[nH]5)nc34)cn2)sc1C [Compound 3.196, ((1R,3s,5S)-3-(7-amino-3-(6-(4,5-dimethylthiazol-2-yl)pyridin-3-yl)-6-(methylsulfonyl)pyrazolo[1,5-a]pyrimidin-5-yl)-8-azabicyclo[3.2.1]octan-8-yl)(4H-1,2,4-triazol-3-yl)methanone]
[1]
  IC50: 100 to 1000 nM
[2]
  IC50: 100 to 1000 nM

## Cc1nnc(C(=O)N2[C@@H]3CC[C@H]2C[C@H](c2nc4c(-c5ccc(-c6nc(C)c(C)s6)nc5)cnn4c(N)c2S(C)(=O)=O)C3)[nH]1 [Compound 3.197, ((1R,3s,5S)-3-(7-amino-3-(6-(4,5-dimethylthiazol-2-yl)pyridin-3-yl)-6-(methylsulfonyl)pyrazolo[1,5-a]pyrimidin-5-yl)-8-azabicyclo[3.2.1]octan-8-yl)(5-methyl-4H-1,2,4-triazol-3-yl]methanone]
[1]
  IC50: 100 to 1000 nM
[2]
  IC50: 100 to 1000 nM

## Cc1nc(C(=O)N2[C@@H]3CC[C@H]2C[C@H](c2nc4c(-c5ccc(-c6csc(C)n6)nc5)cnn4c(N)c2S(C)(=O)=O)C3)n[nH]1 [Compound 3.199, ((1R,3s,5S)-3-(7-amino-6-(methylsulfonyl)-3-(6-(2-methylthiazol-4-yl)pyridin-3-yl)pyrazolo[1,5-a]pyrimidin-5-yl)-8-azabicyclo[3.2.1]octan-8-yl)(5-methyl-1H-1,2,4-triazol-3-yl)methanone]
[1]
  IC50: 1 to 100 nM
[2]
  IC50: 100 to 1000 nM

## CC(=O)N1[C@@H]2CC[C@H]1C[C@H](c1nc3c(-c4ccc(-c5csc(C)n5)nc4)cnn3c(N)c1S(C)(=O)=O)C2 [Compound 3.200, 1-((1R,3s,5S)-3-(7-amino-6-(methylsulfonyl)-3-(6-(2-methylthiazol-4-yl)pyridin-3-yl)pyrazolo[1,5-a]pyrimidin-5-yl)-8-azabicyclo[3.2.1]octan-8-yl)ethanone]
[1]
  IC50: 1000 to 10000 nM
[2]
  IC50: 1000 to 10000 nM

## Cc1nc(-c2ccc(-c3cnn4c(N)c(S(C)(=O)=O)c([C@@H]5C[C@H]6CC[C@@H](C5)N6C(=O)c5cn[nH]n5)nc34)cn2)cs1 [Compound 3.201, ((1R,3s,5S)-3-(7-amino-6-(methylsulfonyl)-3-(6-(2-methylthiazol-4-yl)pyridin-3-yl)pyrazolo[1,5-a]pyrimidin-5-yl)-8-azabicyclo[3.2.1]octan-8-yl)(2H-1,2,3-triazol-4-yl)methanone]
[1]
  IC50: 100 to 1000 nM
[2]
  IC50: 1000 to 10000 nM
